We go through three sequences from patent US20260217863A1, “ANTIBODY OR PEPTIDE BINDING SPECIFICALLY TO RNASE A, IMMUNOASSAY DEVICE AND METHOD FOR DETECTING RNASE A, AND METHOD FOR COLLECTING RNASE A” (UIF (University Industry Foundation), Yonsei University, priority 2022, published 2026).

Where no end group is shown, it is not given here.

This assay deals with T1, RNase A (Bos taurus, UniProt P61823).
T1 sequence (P61823 27-150): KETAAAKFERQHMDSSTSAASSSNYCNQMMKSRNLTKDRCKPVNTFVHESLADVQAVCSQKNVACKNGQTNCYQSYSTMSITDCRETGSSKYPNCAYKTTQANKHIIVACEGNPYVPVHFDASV
Briefly: RNA cleavage assay with total RNA from HeLa cells, agarose gel imaging. Conditions: RNase 0.7 μg/ml, agarose gel image analysis, read-out: IC50 for RNase A activity inhibition. Details: Ribonuclease A (Type II-A) from bovine pancreas; purchased Sigma-Aldrich Korea; host or cells: bovine pancreas. It is filed as biochemical, bovine. How it is done: The analysis of RNase inhibitory activity of Fv antibodies and synthetic peptides was performed using RNA samples extracted from HeLa cells as follows: (1) Mixing the RNA sample extracted from HeLa cells (600 ng) with 87.5 nM-5.6 μM under conditions of 37° C. for 30 minutes, (2) Electrophoresis on a 1% agarose gel at 90 V for 40 minutes. The estimation of RNase inhibitory activity was carried out by gel imaging of the cleaved RNA using a ChemiDoc XPS (Bio-Rad, CA, USA).
(§1) Using RNA samples extracted from HeLa cells, the RNase inhibitory activity of the synthesized peptides was estimated. The RNase inhibitory activity was assessed using agarose gel imaging of the cleaved RNA. To optimize the RNase concentration for the RNase inhibition assay, total RNA was treated with RNase A (600 ng), with RNase A concentrations ranging from 5.7 ng/ml to 3.6 μg/ml, and the cleaved RNA bands were observed after treatment with ETBR (ethidium bromide). […] The RNase concentration for inhibition analysis was determined to be 0.7 μg/ml, with RNase concentrations above 3.6 μg/ml. The inhibition analysis was performed by mixing total RNA from HeLa cells with RNase (0.7 μg/ml) and Fv-antibody at a concentration of 10 μM, resulting in the observation that the entire RNA was completely cleaved into small RNA bands in the absence of the Fv-antibody. […] The optimal concentration of the Fv-antibody for RNase inhibition was determined by the cleavage reaction with total RNA in the concentration range of 87.5 nM to 5.6 μM for Fv-antibodies (Fv-1, Fv-2, Fv-3).
The analysis of RNase inhibitory activity of Fv antibodies and synthetic peptides was performed using RNA samples extracted from HeLa cells as follows: (1) A mixture of RNA samples extracted from HeLa cells (600 ng) was prepared at concentrations of 87.5 nM-5.6 μM and incubated at 37° C. for 30 minutes; (2) Electrophoresis was conducted in a 1% agarose gel under 90 V for 40 minutes. The estimation of RNase inhibitory activity was carried out by gel imaging of the cleaved RNA using a ChemiDoc XPS (Bio-Rad, CA, USA).
as §1, with “the” for “the concentration”
Turning to DGTAKKSRKDD [Peptide-3], the half-maximal inhibitory concentration (IC50) (commonly the midpoint of a concentration-inhibition curve) is 464 nM.
Take CGPDSDVMTDF [Peptide-1]: the IC50 was 995 nM.
Take YGPVGRVKRDD [Peptide-2]: the IC50 was determined as 658 nM.
